Experimental data as given in the NIST ThermoML archive (doi:10.1021/je400630f).
± gives the expanded uncertainty stated by the source.

Assay: xn = mol fraction of the nth substance listed
Conditions: 100 kPa, Liquid; for viscosity: Capillary tube (Ostwald / Ubbelohde) method

CCCCCCCO [heptan-1-ol] + CCO
Conditions | mass density, 283.15 K [kg/m3] | mass density, 293.15 K [kg/m3] | mass density, 298.15 K [kg/m3] | mass density, 303.15 K [kg/m3] | mass density, 313.15 K [kg/m3] | viscosity, 283.15 K [mPa·s] | viscosity, 293.15 K [mPa·s] | viscosity, 298.15 K [mPa·s] | viscosity, 303.15 K [mPa·s] | viscosity, 313.15 K [mPa·s]
x2 = 0 | 829.6 ± 1.3 | 822.6 ± 1.3 | 819.1 ± 1.3 | 815.6 ± 1.3 | 808.4 ± 1.4 | 10.15 ± 0.21 | 7.026 ± 0.15 | 5.947 ± 0.12 | 5.041 ± 0.11 | 3.802 ± 0.08
x2 = 0.1001 | 828.1 ± 1.3 | 821.1 ± 1.3 | 817.6 ± 1.3 | 814 ± 1.3 | 806.8 ± 1.4 | 8.86 ± 0.18 | 6.256 ± 0.13 | 5.311 ± 0.11 | 4.514 ± 0.095 | 3.446 ± 0.072
x2 = 0.2008 | 826.5 ± 1.3 | 819.5 ± 1.3 | 815.9 ± 1.3 | 812.3 ± 1.3 | 805.1 ± 1.3 | 7.718 ± 0.16 | 5.46 ± 0.11 | 4.679 ± 0.098 | 3.999 ± 0.084 | 3.092 ± 0.065
x2 = 0.3009 | 824.8 ± 1.2 | 817.7 ± 1.3 | 814.1 ± 1.3 | 810.4 ± 1.3 | 803.1 ± 1.3 | 6.653 ± 0.14 | 4.681 ± 0.098 | 4.097 ± 0.085 | 3.523 ± 0.074 | 2.751 ± 0.057
x2 = 0.4002 | 822.8 ± 1.2 | 815.5 ± 1.3 | 811.9 ± 1.3 | 808.2 ± 1.3 | 800.8 ± 1.3 | 5.636 ± 0.12 | 4.015 ± 0.084 | 3.565 ± 0.074 | 3.076 ± 0.064 | 2.438 ± 0.051
x2 = 0.5001 | 819.9 ± 1.3 | 812.5 ± 1.3 | 808.8 ± 1.3 | 805.1 ± 1.3 | 797.5 ± 1.4 | 4.683 ± 0.097 | 3.42 ± 0.071 | 3.037 ± 0.063 | 2.653 ± 0.055 | 2.125 ± 0.044
x2 = 0.6002 | 817.6 ± 1.3 | 810.2 ± 1.3 | 806.4 ± 1.3 | 802.6 ± 1.3 | 794.9 ± 1.4 | 3.765 ± 0.078 | 2.869 ± 0.06 | 2.541 ± 0.053 | 2.237 ± 0.047 | 1.818 ± 0.038
x2 = 0.6998 | 813.8 ± 1.3 | 806.2 ± 1.3 | 802.3 ± 1.3 | 798.4 ± 1.3 | 790.6 ± 1.4 | 3.02 ± 0.063 | 2.378 ± 0.049 | 2.09 ± 0.043 | 1.859 ± 0.039 | 1.536 ± 0.032
x2 = 0.8 | 809.9 ± 1.3 | 802.1 ± 1.3 | 798.1 ± 1.3 | 794.1 ± 1.4 | 786.1 ± 1.4 | 2.4 ± 0.05 | 1.943 ± 0.04 | 1.702 ± 0.035 | 1.523 ± 0.032 | 1.28 ± 0.027
x2 = 0.8998 | 804.3 ± 1.3 | 796.2 ± 1.3 | 792.1 ± 1.4 | 788 ± 1.4 | 779.7 ± 1.4 | 1.851 ± 0.038 | 1.535 ± 0.032 | 1.375 ± 0.029 | 1.222 ± 0.025 | 1.04 ± 0.022

CCCCCCCCCCO [decan-1-ol] + CCO
Conditions | mass density, 283.15 K [kg/m3] | mass density, 293.15 K [kg/m3] | mass density, 298.15 K [kg/m3] | mass density, 303.15 K [kg/m3] | mass density, 313.15 K [kg/m3] | viscosity, 283.15 K [mPa·s] | viscosity, 293.15 K [mPa·s] | viscosity, 298.15 K [mPa·s] | viscosity, 303.15 K [mPa·s] | viscosity, 313.15 K [mPa·s]
x2 = 0 | 836.6 ± 1.2 | 829.9 ± 1.2 | 826.5 ± 1.2 | 823 ± 1.2 | 816.2 ± 1.3 | 22.06 ± 0.45 | 14.5 ± 0.3 | 11.47 ± 0.24 | 9.61 ± 0.2 | 6.9 ± 0.14
x2 = 0.09979 | 835.2 ± 1.2 | 828.4 ± 1.2 | 825 ± 1.2 | 821.5 ± 1.2 | 814.6 ± 1.3 | 18.94 ± 0.39 | 12.7 ± 0.26 | 10.22 ± 0.21 | 8.604 ± 0.18 | 6.221 ± 0.13
x2 = 0.2 | 833.7 ± 1.2 | 826.9 ± 1.2 | 823.5 ± 1.2 | 820 ± 1.2 | 813 ± 1.3 | 16.12 ± 0.33 | 10.94 ± 0.23 | 8.957 ± 0.18 | 7.538 ± 0.15 | 5.513 ± 0.11
x2 = 0.3002 | 831.9 ± 1.2 | 825.1 ± 1.2 | 821.6 ± 1.2 | 818.1 ± 1.2 | 811.1 ± 1.3 | 13.35 ± 0.27 | 9.255 ± 0.19 | 7.687 ± 0.16 | 6.462 ± 0.13 | 4.812 ± 0.1
x2 = 0.3999 | 829.5 ± 1.2 | 822.6 ± 1.2 | 819.1 ± 1.2 | 815.5 ± 1.3 | 808.8 ± 1.3 | 10.96 ± 0.23 | 7.668 ± 0.16 | 6.509 ± 0.13 | 5.468 ± 0.11 | 4.146 ± 0.086
x2 = 0.5 | 827.7 ± 1.2 | 820.6 ± 1.2 | 817 ± 1.2 | 813.5 ± 1.3 | 806.4 ± 1.3 | 8.705 ± 0.18 | 6.278 ± 0.13 | 5.387 ± 0.11 | 4.547 ± 0.094 | 3.51 ± 0.073
x2 = 0.6003 | 824 ± 1.2 | 816.8 ± 1.2 | 813.2 ± 1.3 | 809.5 ± 1.3 | 802.1 ± 1.3 | 6.674 ± 0.14 | 5.013 ± 0.1 | 4.346 ± 0.09 | 3.726 ± 0.077 | 2.92 ± 0.06
x2 = 0.6999 | 820.1 ± 1.2 | 812.8 ± 1.3 | 808.8 ± 1.3 | 805.4 ± 1.3 | 797.9 ± 1.3 | 4.92 ± 0.1 | 3.832 ± 0.079 | 3.374 ± 0.07 | 2.947 ± 0.061 | 2.352 ± 0.049
x2 = 0.7997 | 814.6 ± 1.3 | 807 ± 1.3 | 803.1 ± 1.3 | 799.3 ± 1.3 | 791.5 ± 1.4 | 3.54 ± 0.073 | 2.73 ± 0.057 | 2.459 ± 0.051 | 2.195 ± 0.045 | 1.813 ± 0.038
x2 = 0.9 | 807.9 ± 1.3 | 800 ± 1.3 | 795.9 ± 1.3 | 791.9 ± 1.4 | 783.8 ± 1.4 | 2.319 ± 0.048 | 1.87 ± 0.039 | 1.692 ± 0.035 | 1.534 ± 0.032 | 1.311 ± 0.027

CCCCCO [pentan-1-ol] + CCO
Conditions | mass density, 283.15 K [kg/m3] | mass density, 293.15 K [kg/m3] | mass density, 298.15 K [kg/m3] | mass density, 303.15 K [kg/m3] | mass density, 313.15 K [kg/m3] | viscosity, 283.15 K [mPa·s] | viscosity, 293.15 K [mPa·s] | viscosity, 298.15 K [mPa·s] | viscosity, 303.15 K [mPa·s] | viscosity, 313.15 K [mPa·s]
x2 = 0 | 822.1 ± 1.3 | 814.7 ± 1.3 | 811.2 ± 1.3 | 807.5 ± 1.3 | 800 ± 1.4 | 5.417 ± 0.11 | 3.974 ± 0.083 | 3.441 ± 0.072 | 2.99 ± 0.062 | 2.263 ± 0.047
x2 = 0.1 | 820.6 ± 1.3 | 813.2 ± 1.3 | 810 ± 1.3 | 805.8 ± 1.3 | 798.3 ± 1.4 | 4.879 ± 0.1 | 3.595 ± 0.075 | 3.154 ± 0.066 | 2.741 ± 0.057 | 2.1 ± 0.044
x2 = 0.2 | 819.4 ± 1.3 | 812 ± 1.3 | 808.3 ± 1.3 | 804.6 ± 1.3 | 797 ± 1.4 | 4.379 ± 0.091 | 3.263 ± 0.068 | 2.874 ± 0.06 | 2.506 ± 0.052 | 1.931 ± 0.04
x2 = 0.2998 | 817.8 ± 1.3 | 810.3 ± 1.3 | 806.6 ± 1.3 | 802.8 ± 1.3 | 795.1 ± 1.4 | 3.892 ± 0.081 | 2.935 ± 0.061 | 2.587 ± 0.054 | 2.27 ± 0.047 | 1.771 ± 0.037
x2 = 0.3999 | 815.4 ± 1.3 | 807.8 ± 1.3 | 804.2 ± 1.3 | 800.2 ± 1.3 | 792.4 ± 1.4 | 3.404 ± 0.071 | 2.619 ± 0.054 | 2.324 ± 0.048 | 2.05 ± 0.043 | 1.61 ± 0.034
x2 = 0.4997 | 813.3 ± 1.3 | 805.6 ± 1.3 | 801.8 ± 1.3 | 797.9 ± 1.3 | 790 ± 1.4 | 2.966 ± 0.062 | 2.328 ± 0.048 | 2.07 ± 0.043 | 1.828 ± 0.038 | 1.452 ± 0.03
x2 = 0.6 | 811 ± 1.3 | 803.2 ± 1.3 | 799.6 ± 1.3 | 795.4 ± 1.4 | 787.4 ± 1.4 | 2.564 ± 0.053 | 2.04 ± 0.042 | 1.833 ± 0.038 | 1.628 ± 0.034 | 1.312 ± 0.027
x2 = 0.7 | 808.4 ± 1.3 | 800.5 ± 1.3 | 796.4 ± 1.3 | 792.5 ± 1.4 | 784.3 ± 1.4 | 2.234 ± 0.046 | 1.796 ± 0.037 | 1.631 ± 0.034 | 1.453 ± 0.03 | 1.179 ± 0.025
x2 = 0.8 | 805.3 ± 1.3 | 797.3 ± 1.3 | 793.7 ± 1.4 | 789.1 ± 1.4 | 780.8 ± 1.4 | 1.938 ± 0.04 | 1.583 ± 0.033 | 1.435 ± 0.03 | 1.285 ± 0.027 | 1.062 ± 0.022
x2 = 0.8999 | 802 ± 1.3 | 793.7 ± 1.3 | 790.4 ± 1.4 | 785.3 ± 1.4 | 776.8 ± 1.4 | 1.693 ± 0.035 | 1.381 ± 0.029 | 1.256 ± 0.026 | 1.141 ± 0.024 | 0.956 ± 0.02
